{
  "source": "patent US20200246298A1",
  "about": "“Composition for Preventing or Treating Asthma Comprising Fatty Acid as Active Ingredient” (Dongshin University Industry-Academy Cooperation, priority 2019, published 2020)",
  "format_in_all_cases": "in vivo, BALB/c mice",
  "key": {"IL-13 [1]": {"system": "IL-13", "assay": "ELISA analysis in lung tissue, OVA-induced asthma", "conditions": "palmitic acid 5, 25, 50 mg/kg oral, particularly the 50 mg/kg group, FIG. 24", "method": "(§1) In test groups, the animals determined to be healthy during the acclimation period were ranked by measuring the weight, and were randomly grouped so that the average weight of each group was uniform. The animals were divided into a total of 9 groups: a control group; a control group with OVA-induced asthma; a positive control group; groups administered with each of 50 mg/kg, 125 mg/kg and 250 mg/kg of oleic acid; and groups administered with each of 5 mg/kg, 25 mg/kg and 50 mg/kg of palmitic acid. The animals were sensitized via intraperitoneal injection of OVA once a week for 2 weeks after the acclimation period. During 5 days of week 3, dexamethasone (DEX) and the test substances oleic acid and palmitic acid were orally administered in the morning and 5% OVA solution was inhaled in the afternoon. The test substance was orally administered in an amount of 28 μL per weight (g) of the experimental animal, and OVA for sensitization was administered in a constant amount regardless of the weight. After 5 days of administration, autopsy was performed the next day. To analyze the levels of IFN-γ, IL-12p40, IL-4, IL-5, IL-6, and TNF-α in lung tissue, OptEIA mouse ELISAs were purchased from BD Biosciences. The IL-13 levels were assessed using the AbFrontier Cymax mouse FT ISA kit (AbFrontier, Seoul, Korea). All assays were performed according to the manufacturers' guidelines. All lung samples were prepared by a lysis buffer made with a protease inhibitor cocktail and an RIPA buffer (Thermo Fisher Scientific). Aliquots of lung tissue from all groups were weighed and homogenized with lysis buffer. They were then centrifuged at 8,200 rpm for 15 minutes, and the supernatants were harvested and measured using a microplate reader (EZ Read 400, Biochrom, Cambourne, UK)."}, "IFN-γ": {"system": "IFN-γ", "assay": "ELISA analysis in lung tissue, OVA-induced asthma", "conditions": "palmitic acid 5, 25, 50 mg/kg oral, vs OVA, FIG. 20", "method": "as §1"}, "IL-6 [2]": {"system": "IL-6", "assay": "ELISA analysis in lung tissue, OVA-induced asthma", "conditions": "palmitic acid 5, 25, 50 mg/kg oral, particularly the 50 mg/kg group", "method": "as §1"}, "TNF-α [3]": {"system": "TNF-α", "assay": "ELISA analysis in lung tissue, OVA-induced asthma", "conditions": "palmitic acid 5, 25, 50 mg/kg oral, particularly the 50 mg/kg group, FIG. 25", "method": "as §1"}, "IL-12p40": {"system": "IL-12p40", "assay": "ELISA analysis in lung tissue, OVA-induced asthma", "conditions": "palmitic acid 5, 25, 50 mg/kg oral, particularly the 25 mg/kg group, FIG. 21", "method": "as §1"}, "IL-4": {"system": "IL-4", "assay": "ELISA analysis in lung tissue, OVA-induced asthma", "conditions": "palmitic acid 5, 25, 50 mg/kg oral, particularly the 50 mg/kg group, FIG. 22", "method": "as §1"}, "IL-5": {"system": "IL-5", "assay": "ELISA analysis in lung tissue, OVA-induced asthma", "conditions": "palmitic acid 5, 25, 50 mg/kg oral, particularly the 5 mg/kg group, FIG. 23", "method": "as §1"}, "IL-13 [4]": {"system": "IL-13", "assay": "RT-PCR analysis of lung, OVA-induced asthma", "conditions": "palmitic acid 5, 25, 50 mg/kg oral, FIG. 27", "method": "(§2) In test groups, the animals determined to be healthy during the acclimation period were ranked by measuring the weight, and were randomly grouped so that the average weight of each group was uniform. The animals were divided into a total of 9 groups: a control group; a control group with OVA-induced asthma; a positive control group; groups administered with each of 50 mg/kg, 125 mg/kg and 250 mg/kg of oleic acid; and groups administered with each of 5 mg/kg, 25 mg/kg and 50 mg/kg of palmitic acid. The animals were sensitized via intraperitoneal injection of OVA once a week for 2 weeks after the acclimation period. During 5 days of week 3, dexamethasone (DEX) and the test substances oleic acid and palmitic acid were orally administered in the morning and 5% OVA solution was inhaled in the afternoon. The test substance was orally administered in an amount of 28 μL per weight (g) of the experimental animal, and OVA for sensitization was administered in a constant amount regardless of the weight. After 5 days of administration, autopsy was performed the next day.\n(§3) In order to evaluate changes in the cDNA levels of IFN-γ, IL-12p40, IL-4, IL-5, IL-13, TNF-α, and IL-6, which are related to asthma induction, RT-PCR analysis was performed as in a previous study protocol (Lee et al., 2017). Total RNA was extracted from the lung using the RNeasy Mini Kit (Qiagen, Hilden, Germany) according to the manufacturer's instructions. Total RNA (100 ng) was used as a template for the reaction.\n(§4) The RT-PCR cycles consisted of denaturation at 95° C. for 5 sec and annealing/extension at 65° C. for 30 sec for 40 cycles. The results were obtained using an Axioscope A1 (Carl Zeiss, Gottingen, Germany)."}, "IL-6 [5]": {"system": "IL-6", "assay": "RT-PCR analysis of lung, OVA-induced asthma", "conditions": "palmitic acid 5, 25, 50 mg/kg oral, FIG. 27", "method": "as §2, §3, §4"}, "TNF-α [6]": {"system": "TNF-α", "assay": "RT-PCR analysis of lung, OVA-induced asthma", "conditions": "palmitic acid 5, 25, 50 mg/kg oral, FIG. 27", "method": "as §2, §3, §4"}},
  "data": [
    {"smiles": "CCCCCCCCCCCCCCCC(=O)O", "note": "[palmitic acid]", "values": [
      {"measurement": "expression level of IL-13", "setting": "IL-13 [1]", "result": "decreased"},
      {"measurement": "expression level of IFN-γ", "setting": "IFN-γ", "result": "dose-dependently decreased"},
      {"measurement": "expression level of IL-6", "setting": "IL-6 [2]", "result": "decreased"},
      {"measurement": "expression level of TNF-α", "setting": "TNF-α [3]", "result": "decreased"},
      {"measurement": "expression level of IL-12p40", "setting": "IL-12p40", "result": "decreased"},
      {"measurement": "expression level of IL-4", "setting": "IL-4", "result": "decreased"},
      {"measurement": "expression level of IL-5", "setting": "IL-5", "result": "decreased"},
      {"measurement": "Th2-related cytokine IL-13 (cDNA level, RT-PCR)", "setting": "IL-13 [4]", "result": "dose-dependently decreased"},
      {"measurement": "Th17-related cytokine IL-6 (cDNA level, RT-PCR)", "setting": "IL-6 [5]", "result": "dose-dependently decreased"},
      {"measurement": "Th17-related cytokine TNF-α (cDNA level, RT-PCR)", "setting": "TNF-α [6]", "result": "dose-dependently decreased"}
    ]}
  ]
}
